Residues, ends and D or L forms follow the SMILES beside them. *: point of attachment. AMC = Cc1cc(=O)oc2cc(N*)ccc12; Boc = CC(C)(C)OC(=O)*
How the values were obtained:
MRSA and MSSA [1] = conditions: post-culture (10^6-10^8 bacteria); cited from earlier work
MRSA and MSSA [2] = assay: Coumarin staphylocoagulase assay, MRSA and MSSA; type: cell-based, Staphylococcus aureus; conditions: 100 μM coumarin; MRSA and MSSA 10^6 and 10^5; FIG. 11
Protocol: (§1) As described for the LGX system, clinical isolates of Methicillin Resistant Staphylococcus Aureus (MRSA), Methicillin Sensitive Staphylococcus Aureus (MSSA), Staphylococcus Epidermidis and Eschericia coli were cultured on nutrient agar prior to being grown overnight in nutrient broth under shaking conditions at 37° C. To determine the effects of varying bacterial concentrations with respect to bacterial strains and N-t-BOC-val-pro-arg-7-amido-4-methylcoumarin concentrations on staphylocoagulase activity, a direct comparison between the LGX system and the existing use of N-t-BOC-val-pro-arg-7-amido-4-methylcoumarin as a means of detecting staphylocoagulase was necessary (Ford et al, 1999).
(§2) 100 μM and 500 μM solutions of coumarin solution were prepared in 1×PBS with the addition of 0.05 M Tris Buffer and 0.1 M NaCl to maintain a pH of 8.5 using N-t-BOC-val-pro-arg-7-amido-4-methylcoumarin dissolved in MeOH. Furthermore, 100 μM and 500 μM of human prothrombin was added to the solution. 90 μl of […] of N-t-BOC-val-pro-arg-7-amido-4-methylcoumarin solution was added to varying concentrations of bacteria (10^6, 10^5, 10^4, 10^3, 10^2 and 10^0, respectively) in a microliter plate and staphylocoagulase activity determined by fluorescence spectrophotometry (Excitation of 355 nm, Emmission of 460 nm) at 15 minute intervals over a 6 hour time period. […]

[3] = tested on: MRSA, MSSA, S. epidermidis and E. coli; assay: Coumarin assay, absorbance at 385 nm, all bacterial types; type: cell-based; conditions: 100 μM coumarin, FIG. 15
Protocol: To compare the efficacy of this staphylocoagulase assay with current, well established “gold standard” methods of coagulase detection such as a coumarin assay, coagulase test and latex agglutination test, bacterial isolates were prepared in suspension as above and clinical isolates of each respective strain was cultured overnight on nutrient agar. 90 μl of bacterial suspension was added to a solution consisting of 100 μM solutions of N-t-BOC-val-pro-arg-7-amido-4-methylcoumarin prepared in 1×PBS with the addition of 0.05 M Tris Buffer and 0.1 M NaCl to maintain a pH of 8.5. Staphylocoagulase activity was determined by measuring the absorbance at 385 nm at 15 minute intervals over a 6 hour time period. It should be noted that a concentration of 795 μM of the coumarin dye is usually required post-culture (10^6-10^8 bacteria) in order to observe a significant chromogenic response.

MSSA = assay: Coumarin staphylocoagulase fluorescence assay, MSSA; type: cell-based, Staphylococcus aureus; conditions: 500 μM coumarin; MSSA 10^6; FIG. 10
Protocol: as §1, §2

[4] = tested on: MRSA, MSSA, S. epidermidis and E. coli; assay: Coumarin staphylocoagulase fluorescence assay, all four bacterial species; type: cell-based; conditions: 500 μM coumarin, FIG. 10
Protocol: as §1, §2

bacterial viability = assay: Effect of methanol on bacterial viability (colony count); type: cell-based; conditions: 2 hours incubation, all bacteria concentrations (10^2-10^6), plated on nutrient agar overnight
Protocol: Tests were also run to validate that the methanol had no adverse effects on the growth of a number of bacterial strains up to a ˜5% methanol solution. Varying concentrations of methanol (0.25%, 0.5%, 1%, 2.5 5, 4% and 5%) were incubated with each bacterial species also at varying concentrations (10^2-10^6) for 2 hours prior to plating on nutrient agar to assess the effects of the solvent on bacterial viability.

Row | Structure (SMILES) | concentration usually required to observe a significant chromogenic response (MRSA and MSSA [1]) [µM] | discrimination between bacterial samples by fluorescence (MRSA and MSSA [2]) | absorbance over the 6 hour time period ([3]; 10^5, 10^4, 10^3 and 10^2) | absorbance over the 6 hour time period ([3]; 10^6 of all bacterial types) | fluorescence (MSSA) | discrimination between bacterial species by fluorescence ([4]; all bacterial species 10^6) | fluorescence over the 6 hour time period ([4]; high and low concentrations of MRSA, MSSA, S. epidermidis and E. coli) | methanol concentration up to which bacterial viability was not compromised (bacterial viability)
1 | Cc1cc(=O)oc2cc(NC(=O)[C@H](CCCNC(=N)N)NC(=O)[C@@H]3CCCN3C(=O)[C@@H](NC(=O)OC(C)(C)C)C(C)C)ccc12 [N-t-BOC-val-pro-arg-7-amido-4-methylcoumarin] (Boc-Val-Pro-Arg-{AMC}) | 795 | no discrimination between bacterial samples | no increase or variance between bacterial strains | little increase over the 6 hour time period | a slight increase was observed | little discrimination between the fluorescence of all samples | no increase in fluorescence was observed | 
2 | CO [methanol] |  |  |  |  |  |  |  | up to 4%

— patent publication US10400263B2, “Tripeptide rhodamine compound” (Kingston Uninversity Higher Education Corporation, priority 2012, dated 2019)
